From the kinase profiling compilation of Christmann-Franck et al. (2016)

Assays:
Assay in all cases: radiometric filter-binding kinase assay, Kinase HotSpot
Details in all cases: compound 0.5 µM; ATP 10 µM
ACVR1B (human) = ACVR1B (human) (UniProt P36896)
PAK3 (human) = PAK3 (human) (UniProt O75914)
MAP3K2 (human) = MAP3K2 (human) (UniProt Q9Y2U5)
PTK2B (human) = PTK2B (human) (UniProt Q14289)
MAP3K5 (human) = MAP3K5 (human) (UniProt Q99683)
DAPK3 (human) = DAPK3 (human) (UniProt O43293)
CDK1 CCNB1 (human) = CDK1 CCNB1 (human) (UniProt P06493+P14635)
PRKD3 (human) = PRKD3 (human) (UniProt O94806)
PRKCD (human) = PRKCD (human) (UniProt Q05655)
HIPK3 (human) = HIPK3 (human) (UniProt Q9H422)
RPS6KA4 KD2 (human) = RPS6KA4 KD2 (human) (UniProt O75676)
MAP4K4 (human) = MAP4K4 (human) (UniProt O95819)
ADRBK2 (human) = ADRBK2 (human) (UniProt P35626)
TXK (human) = TXK (human) (UniProt P42681)
PRKCB1 (human) = PRKCB1 (human) (UniProt P05771)
AKT3 (human) = AKT3 (human) (UniProt Q9Y243)
ITK (human) = ITK (human) (UniProt Q08881)
MET (human) = MET (human) (UniProt P08581)
DSTYK (human) = DSTYK (human) (UniProt Q6XUX3)
YES1 (human) = YES1 (human) (UniProt P07947)
VRK1 (human) = VRK1 (human) (UniProt Q99986)
CAMK2G (human) = CAMK2G (human) (UniProt Q13555)
FGFR3 (human) = FGFR3 (human) (UniProt P22607)
MAPK11 (human) = MAPK11 (human) (UniProt Q15759)
CAMKK1 (human) = CAMKK1 (human) (UniProt Q8N5S9)
MAP3K14 (human) = MAP3K14 (human) (UniProt Q99558)
MAP3K7 TAB1 (human) = MAP3K7 TAB1 (human) (UniProt O43318+Q15750)
NTRK1 (human) = NTRK1 (human) (UniProt P04629)
TNK2 (human) = TNK2 (human) (UniProt Q07912)
CDC42BPA (human) = CDC42BPA (human) (UniProt Q5VT25)
PIM1 (human) = PIM1 (human) (UniProt P11309)
EPHA5 (human) = EPHA5 (human) (UniProt P54756)
DYRK1B (human) = DYRK1B (human) (UniProt Q9Y463)
RPS6KA3 KD1 KD2 (human) = RPS6KA3 KD1 KD2 (human) (UniProt P51812)
CSNK1G1 (human) = CSNK1G1 (human) (UniProt Q9HCP0)
EPHA2 (human) = EPHA2 (human) (UniProt P29317)
RPS6KB1 (human) = RPS6KB1 (human) (UniProt P23443)
CHEK2 (human) = CHEK2 (human) (UniProt O96017)
MAPK10 (human) = MAPK10 (human) (UniProt P53779)
PIM2 (human) = PIM2 (human) (UniProt Q9P1W9)
STK25 (human) = STK25 (human) (UniProt O00506)
BTK (human) = BTK (human) (UniProt Q06187)

Chain of STK25 (human) (O00506 whole entry, looked up): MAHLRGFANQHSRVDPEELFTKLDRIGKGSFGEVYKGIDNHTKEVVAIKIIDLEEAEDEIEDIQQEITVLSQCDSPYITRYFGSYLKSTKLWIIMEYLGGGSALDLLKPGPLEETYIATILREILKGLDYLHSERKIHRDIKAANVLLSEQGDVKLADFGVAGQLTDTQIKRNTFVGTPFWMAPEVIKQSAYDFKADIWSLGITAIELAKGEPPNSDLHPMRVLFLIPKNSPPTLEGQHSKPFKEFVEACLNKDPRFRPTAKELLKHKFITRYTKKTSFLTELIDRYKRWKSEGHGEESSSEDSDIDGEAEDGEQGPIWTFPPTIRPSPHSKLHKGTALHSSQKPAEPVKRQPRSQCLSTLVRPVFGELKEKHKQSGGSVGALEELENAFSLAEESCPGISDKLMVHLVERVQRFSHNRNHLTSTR
Chain of RPS6KB1 (human) (P23443 whole entry, looked up): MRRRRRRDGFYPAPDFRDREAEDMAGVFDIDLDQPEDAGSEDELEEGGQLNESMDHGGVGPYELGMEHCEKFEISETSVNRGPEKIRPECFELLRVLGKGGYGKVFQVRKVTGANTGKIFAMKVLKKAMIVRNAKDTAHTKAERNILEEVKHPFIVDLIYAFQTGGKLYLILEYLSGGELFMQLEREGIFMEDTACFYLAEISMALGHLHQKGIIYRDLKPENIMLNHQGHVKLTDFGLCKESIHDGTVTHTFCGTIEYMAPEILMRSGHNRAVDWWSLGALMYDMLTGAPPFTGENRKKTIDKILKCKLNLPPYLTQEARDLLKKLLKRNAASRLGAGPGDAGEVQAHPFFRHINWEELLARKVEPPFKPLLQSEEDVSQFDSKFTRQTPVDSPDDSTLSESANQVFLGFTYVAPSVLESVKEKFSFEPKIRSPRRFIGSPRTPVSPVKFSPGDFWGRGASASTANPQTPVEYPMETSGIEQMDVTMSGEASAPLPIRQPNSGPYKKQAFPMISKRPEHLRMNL
Chain of EPHA2 (human) (P29317 whole entry, looked up): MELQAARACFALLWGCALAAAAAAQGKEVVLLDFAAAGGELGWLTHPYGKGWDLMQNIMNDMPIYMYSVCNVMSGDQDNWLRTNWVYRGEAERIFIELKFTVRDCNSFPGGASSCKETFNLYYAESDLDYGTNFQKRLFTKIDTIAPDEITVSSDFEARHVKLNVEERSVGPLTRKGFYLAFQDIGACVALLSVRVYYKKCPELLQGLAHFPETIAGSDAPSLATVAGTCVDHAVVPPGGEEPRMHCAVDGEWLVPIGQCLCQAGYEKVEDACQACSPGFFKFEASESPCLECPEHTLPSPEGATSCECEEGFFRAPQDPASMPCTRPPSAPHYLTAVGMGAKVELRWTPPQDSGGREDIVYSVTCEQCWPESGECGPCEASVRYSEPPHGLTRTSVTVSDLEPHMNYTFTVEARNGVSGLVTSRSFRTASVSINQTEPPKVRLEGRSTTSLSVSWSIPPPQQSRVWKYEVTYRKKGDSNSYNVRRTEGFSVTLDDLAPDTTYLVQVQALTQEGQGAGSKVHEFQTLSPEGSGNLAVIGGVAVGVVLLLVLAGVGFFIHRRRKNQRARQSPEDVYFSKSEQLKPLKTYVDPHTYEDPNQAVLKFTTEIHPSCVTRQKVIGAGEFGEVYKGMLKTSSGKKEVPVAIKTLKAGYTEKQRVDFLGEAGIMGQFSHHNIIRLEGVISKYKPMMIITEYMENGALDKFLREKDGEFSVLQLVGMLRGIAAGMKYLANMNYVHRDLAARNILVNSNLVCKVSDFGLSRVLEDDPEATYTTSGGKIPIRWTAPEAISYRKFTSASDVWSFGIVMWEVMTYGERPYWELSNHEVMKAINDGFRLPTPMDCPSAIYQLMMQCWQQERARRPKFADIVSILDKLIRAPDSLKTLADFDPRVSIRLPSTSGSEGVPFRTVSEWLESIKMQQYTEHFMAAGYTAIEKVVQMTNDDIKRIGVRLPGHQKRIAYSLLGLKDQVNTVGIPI
Chain of PIM2 (human) (Q9P1W9 whole entry, looked up): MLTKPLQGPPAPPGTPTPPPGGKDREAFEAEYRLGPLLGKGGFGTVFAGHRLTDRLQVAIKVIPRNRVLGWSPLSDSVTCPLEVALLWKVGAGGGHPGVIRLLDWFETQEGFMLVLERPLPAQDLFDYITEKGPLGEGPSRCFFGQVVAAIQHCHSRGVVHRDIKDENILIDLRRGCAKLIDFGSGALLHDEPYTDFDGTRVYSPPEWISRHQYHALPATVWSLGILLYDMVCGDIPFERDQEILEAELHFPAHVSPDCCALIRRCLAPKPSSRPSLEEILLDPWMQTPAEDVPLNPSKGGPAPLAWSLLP
Chain of NTRK1 (human) (P04629 whole entry, looked up): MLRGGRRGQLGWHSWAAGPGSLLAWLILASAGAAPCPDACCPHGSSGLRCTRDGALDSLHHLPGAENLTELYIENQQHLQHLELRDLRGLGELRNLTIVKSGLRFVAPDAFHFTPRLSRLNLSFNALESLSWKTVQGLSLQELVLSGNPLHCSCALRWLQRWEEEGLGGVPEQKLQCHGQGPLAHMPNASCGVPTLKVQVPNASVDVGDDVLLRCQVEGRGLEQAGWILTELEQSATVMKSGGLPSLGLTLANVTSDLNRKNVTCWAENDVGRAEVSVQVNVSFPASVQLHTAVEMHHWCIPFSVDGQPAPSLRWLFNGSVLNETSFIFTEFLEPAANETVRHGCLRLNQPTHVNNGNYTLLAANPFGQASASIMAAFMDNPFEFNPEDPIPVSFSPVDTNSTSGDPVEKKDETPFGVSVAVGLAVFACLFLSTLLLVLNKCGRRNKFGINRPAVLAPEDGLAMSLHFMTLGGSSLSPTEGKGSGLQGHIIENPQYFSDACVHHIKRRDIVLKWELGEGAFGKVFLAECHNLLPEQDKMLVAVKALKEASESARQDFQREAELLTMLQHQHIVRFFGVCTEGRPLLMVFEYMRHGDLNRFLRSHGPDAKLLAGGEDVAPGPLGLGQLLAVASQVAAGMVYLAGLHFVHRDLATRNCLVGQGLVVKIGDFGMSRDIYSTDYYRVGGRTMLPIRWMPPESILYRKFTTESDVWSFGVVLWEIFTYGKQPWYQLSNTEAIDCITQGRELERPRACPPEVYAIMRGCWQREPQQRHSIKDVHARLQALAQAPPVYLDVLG
Chain of CSNK1G1 (human) (Q9HCP0 whole entry, looked up): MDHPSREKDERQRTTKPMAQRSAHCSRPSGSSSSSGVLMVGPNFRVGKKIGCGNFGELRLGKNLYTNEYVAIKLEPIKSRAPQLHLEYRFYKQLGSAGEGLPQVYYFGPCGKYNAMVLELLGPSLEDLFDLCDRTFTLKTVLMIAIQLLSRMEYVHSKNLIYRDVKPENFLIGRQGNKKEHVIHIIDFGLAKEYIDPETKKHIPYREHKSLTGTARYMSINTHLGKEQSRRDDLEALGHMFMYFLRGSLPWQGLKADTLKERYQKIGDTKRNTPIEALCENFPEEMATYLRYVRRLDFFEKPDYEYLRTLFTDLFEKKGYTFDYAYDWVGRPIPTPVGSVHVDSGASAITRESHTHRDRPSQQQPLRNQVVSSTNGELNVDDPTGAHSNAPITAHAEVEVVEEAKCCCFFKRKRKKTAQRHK
Chain of DSTYK (human) (Q6XUX3 whole entry, looked up): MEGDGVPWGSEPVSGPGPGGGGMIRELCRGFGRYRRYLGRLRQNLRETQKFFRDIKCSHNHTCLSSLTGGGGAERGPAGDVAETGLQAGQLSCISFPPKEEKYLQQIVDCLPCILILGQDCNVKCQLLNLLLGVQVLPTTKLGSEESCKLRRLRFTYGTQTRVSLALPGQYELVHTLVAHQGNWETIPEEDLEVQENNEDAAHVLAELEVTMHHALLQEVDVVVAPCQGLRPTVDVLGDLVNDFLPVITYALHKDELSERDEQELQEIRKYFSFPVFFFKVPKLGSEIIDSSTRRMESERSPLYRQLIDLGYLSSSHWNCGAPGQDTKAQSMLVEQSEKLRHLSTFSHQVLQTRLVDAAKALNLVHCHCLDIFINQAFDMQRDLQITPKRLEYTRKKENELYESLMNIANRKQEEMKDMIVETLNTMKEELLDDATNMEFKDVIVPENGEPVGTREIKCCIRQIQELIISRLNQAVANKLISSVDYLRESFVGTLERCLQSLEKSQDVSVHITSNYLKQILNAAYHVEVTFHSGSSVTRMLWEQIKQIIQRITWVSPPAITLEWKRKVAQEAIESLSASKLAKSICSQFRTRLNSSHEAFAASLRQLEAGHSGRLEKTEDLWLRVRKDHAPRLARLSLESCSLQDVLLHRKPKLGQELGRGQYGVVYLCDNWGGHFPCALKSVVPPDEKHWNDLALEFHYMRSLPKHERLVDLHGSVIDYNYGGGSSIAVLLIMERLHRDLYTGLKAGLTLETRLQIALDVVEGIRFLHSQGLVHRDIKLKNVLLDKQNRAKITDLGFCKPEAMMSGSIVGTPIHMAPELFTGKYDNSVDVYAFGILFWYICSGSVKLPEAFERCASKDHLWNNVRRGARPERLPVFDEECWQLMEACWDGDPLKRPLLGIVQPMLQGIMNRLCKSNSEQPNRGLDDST
Chain of DAPK3 (human) (O43293 whole entry, looked up): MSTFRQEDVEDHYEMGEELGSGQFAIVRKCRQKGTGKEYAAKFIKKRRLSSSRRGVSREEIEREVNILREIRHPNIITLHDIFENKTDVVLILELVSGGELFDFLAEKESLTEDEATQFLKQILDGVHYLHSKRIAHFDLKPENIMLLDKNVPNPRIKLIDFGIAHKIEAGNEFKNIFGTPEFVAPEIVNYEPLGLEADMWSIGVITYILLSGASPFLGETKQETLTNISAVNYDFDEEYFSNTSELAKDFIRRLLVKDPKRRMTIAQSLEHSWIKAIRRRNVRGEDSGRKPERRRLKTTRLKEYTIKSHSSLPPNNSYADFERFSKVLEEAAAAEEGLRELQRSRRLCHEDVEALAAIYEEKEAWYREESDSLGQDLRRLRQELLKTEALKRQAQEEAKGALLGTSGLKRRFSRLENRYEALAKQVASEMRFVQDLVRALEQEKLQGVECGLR

**Q.** How did the residual activity (ACVR1B (human)) turn out when Cc1ccc(NC(=O)c2ccc(CN3CCN(C)CC3)cc2)cc1Nc1nc(-c2cccnc2)cs1 was run?
**A.** 99.8%

**Q.** And the residual activity (PAK3 (human))?
**A.** 106%

**Q.** What about the residual activity (MAP3K2 (human)) of the same compound?
**A.** 102%

**Q.** And the residual activity (PTK2B (human))?
**A.** 98.9%

**Q.** And the residual activity (MAP3K5 (human))?
**A.** 95%

**Q.** What about the residual activity (DAPK3 (human)) of the same compound?
**A.** 100%

**Q.** What about the residual activity (CDK1 CCNB1 (human)) of the same compound?
**A.** 97.6%

**Q.** And the residual activity (PRKD3 (human))?
**A.** 92.7%

**Q.** What about the residual activity (PRKCD (human)) of the same compound?
**A.** 97.9%

**Q.** And the residual activity (HIPK3 (human))?
**A.** 101%

**Q.** And the residual activity (RPS6KA4 KD2 (human))?
**A.** 101%

**Q.** And the residual activity (MAP4K4 (human))?
**A.** 72.2%

**Q.** What about the residual activity (ADRBK2 (human)) of the same compound?
**A.** 100%

**Q.** What about the residual activity (TXK (human)) of the same compound?
**A.** 101%

**Q.** What about the residual activity (PRKCB1 (human)) of the same compound?
**A.** 101%

**Q.** What about the residual activity (AKT3 (human)) of the same compound?
**A.** 102%

**Q.** What about the residual activity (ITK (human)) of the same compound?
**A.** 98.7%

**Q.** What about the residual activity (MET (human)) of the same compound?
**A.** 104%

**Q.** And the residual activity (DSTYK (human))?
**A.** 92.4%

**Q.** And the residual activity (YES1 (human))?
**A.** 50.7%

**Q.** What about the residual activity (VRK1 (human)) of the same compound?
**A.** 97.4%

**Q.** And the residual activity (CAMK2G (human))?
**A.** 98.6%

**Q.** What about the residual activity (FGFR3 (human)) of the same compound?
**A.** 94.3%

**Q.** What about the residual activity (MAPK11 (human)) of the same compound?
**A.** 102%

**Q.** And the residual activity (CAMKK1 (human))?
**A.** 97.6%

**Q.** And the residual activity (MAP3K14 (human))?
**A.** 91%

**Q.** And the residual activity (MAP3K7 TAB1 (human))?
**A.** 98.6%

**Q.** What about the residual activity (NTRK1 (human)) of the same compound?
**A.** 97.1%

**Q.** What about the residual activity (TNK2 (human)) of the same compound?
**A.** 95.7%

**Q.** What about the residual activity (CDC42BPA (human)) of the same compound?
**A.** 104%

**Q.** What about the residual activity (PIM1 (human)) of the same compound?
**A.** 86.4%

**Q.** And the residual activity (EPHA5 (human))?
**A.** 104%

**Q.** And the residual activity (DYRK1B (human))?
**A.** 95.7%

**Q.** And the residual activity (RPS6KA3 KD1 KD2 (human))?
**A.** 93.6%

**Q.** What about the residual activity (CSNK1G1 (human)) of the same compound?
**A.** 92.4%

**Q.** What about the residual activity (EPHA2 (human)) of the same compound?
**A.** 91.2%

**Q.** What about the residual activity (RPS6KB1 (human)) of the same compound?
**A.** 104%

**Q.** And the residual activity (CHEK2 (human))?
**A.** 101%

**Q.** What about the residual activity (MAPK10 (human)) of the same compound?
**A.** 94.2%

**Q.** What about the residual activity (PIM2 (human)) of the same compound?
**A.** 118%

**Q.** What about the residual activity (STK25 (human)) of the same compound?
**A.** 95.5%

**Q.** And the residual activity (BTK (human))?
**A.** 99.6%

**Q.** For O=C1Cc2c([nH]c3ccc([N+](=O)[O-])cc23)-c2ccccc2N1, which residual activity (ACVR1B (human)) is on record?
**A.** 109%

**Q.** And the residual activity (PAK3 (human))?
**A.** 80.4%

**Q.** And the residual activity (MAP3K2 (human))?
**A.** 78%

**Q.** And the residual activity (PTK2B (human))?
**A.** 82.9%

**Q.** What about the residual activity (MAP3K5 (human)) of the same compound?
**A.** 101%

**Q.** And the residual activity (DAPK3 (human))?
**A.** 103%

**Q.** What about the residual activity (CDK1 CCNB1 (human)) of the same compound?
**A.** 23.2%

**Q.** What about the residual activity (PRKD3 (human)) of the same compound?
**A.** 88.2%

**Q.** What about the residual activity (PRKCD (human)) of the same compound?
**A.** 79.8%

**Q.** What about the residual activity (HIPK3 (human)) of the same compound?
**A.** 96.6%

**Q.** And the residual activity (RPS6KA4 KD2 (human))?
**A.** 90.6%

**Q.** What about the residual activity (MAP4K4 (human)) of the same compound?
**A.** 4.47%

**Q.** What about the residual activity (ADRBK2 (human)) of the same compound?
**A.** 88.9%

**Q.** What about the residual activity (TXK (human)) of the same compound?
**A.** 87.3%

**Q.** What about the residual activity (PRKCB1 (human)) of the same compound?
**A.** 105%

**Q.** And the residual activity (AKT3 (human))?
**A.** 94.1%

**Q.** What about the residual activity (ITK (human)) of the same compound?
**A.** 97.1%

**Q.** And the residual activity (MET (human))?
**A.** 117%

**Q.** What about the residual activity (DSTYK (human)) of the same compound?
**A.** 90%

**Q.** And the residual activity (YES1 (human))?
**A.** 42.3%

**Q.** What about the residual activity (VRK1 (human)) of the same compound?
**A.** 90.8%

**Q.** And the residual activity (CAMK2G (human))?
**A.** 94.5%

**Q.** What about the residual activity (FGFR3 (human)) of the same compound?
**A.** 90.5%

**Q.** What about the residual activity (MAPK11 (human)) of the same compound?
**A.** 102%

**Q.** And the residual activity (CAMKK1 (human))?
**A.** 91.7%

**Q.** And the residual activity (MAP3K14 (human))?
**A.** 132%

**Q.** What about the residual activity (MAP3K7 TAB1 (human)) of the same compound?
**A.** 67.5%

**Q.** And the residual activity (NTRK1 (human))?
**A.** 107%

**Q.** And the residual activity (TNK2 (human))?
**A.** 74.9%

**Q.** What about the residual activity (CDC42BPA (human)) of the same compound?
**A.** 96.2%

**Q.** What about the residual activity (PIM1 (human)) of the same compound?
**A.** 92%

**Q.** And the residual activity (EPHA5 (human))?
**A.** 98.6%

**Q.** And the residual activity (DYRK1B (human))?
**A.** 87.5%

**Q.** What about the residual activity (RPS6KA3 KD1 KD2 (human)) of the same compound?
**A.** 70.6%

**Q.** And the residual activity (CSNK1G1 (human))?
**A.** 100%

**Q.** And the residual activity (EPHA2 (human))?
**A.** 92.7%

**Q.** What about the residual activity (RPS6KB1 (human)) of the same compound?
**A.** 103%

**Q.** And the residual activity (CHEK2 (human))?
**A.** 7.9%

**Q.** What about the residual activity (MAPK10 (human)) of the same compound?
**A.** 97.2%

**Q.** What about the residual activity (PIM2 (human)) of the same compound?
**A.** 113%

**Q.** What about the residual activity (STK25 (human)) of the same compound?
**A.** 83.6%

**Q.** And the residual activity (BTK (human))?
**A.** 98.2%
